According to US11466013B2 (Betta Pharmaceuticals Co., LTD, priority 2018, dated 2022):

Legend:
[1] = tested on: COLO205 cells; assay: Cell proliferation assay (COLO205), Cell-titer Glo; format: cell-based
Experimental: COLO205 cells were spread into a 96-well plate at 135 μL/well at 2000 cells. After incubating overnight, compound solutions of gradient concentration was prepared, and added 15 μL of DMSO solution of the test compound of each concentration to the cells of each well. The final concentration of the compound was 30000, 10000, 3333.3, 1111.1, 370.4, 123.5, 41.2, 13.7, 4.6, 0 nM (the final concentration of DMSO was 0.5%). 5% CO2 was incubated for 120 h at 37° C. 50 μL of Cell-titer Glo working solution was added to each well, shaked and mixed, and incubated at room temperature for 10 minutes. The multi-functional microplate reader read the luminescence value, and converted the luminescence value reading into inhibition percentage. Inhibition percentage=(maximum value−reading)/(maximum value−minimum value)*100.
The “maximum value” was the DMSO control, the “minimum value” indicates the cell-free control group.
Graphpad Prism software was used to perform curve fitting and obtain IC50 value.

[2] = target: ERK2 (Homo sapiens, UniProt P28482); assay: Kinase assay (Caliper, FAM-labeled peptide), ERK2; format: biochemical
In short: (§1)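 Kinase preincubated 10 min at room temperature with serially diluted compound before FAM-labeled peptide plus ATP added; reaction run at 28 °C, then stopped. Substrate conversion read by Caliper mobility shift, normalized to DMSO and low controls, curve-fitted for IC50.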

[3] = target: ERK1 (Homo sapiens, UniProt P27361); assay: Kinase assay (Caliper, FAM-labeled peptide), ERK1; format: biochemical
In short: as §1

[4] = Homo sapiens, COLO 205, 120 h incubation

ERK1, sequence (P27361 whole entry): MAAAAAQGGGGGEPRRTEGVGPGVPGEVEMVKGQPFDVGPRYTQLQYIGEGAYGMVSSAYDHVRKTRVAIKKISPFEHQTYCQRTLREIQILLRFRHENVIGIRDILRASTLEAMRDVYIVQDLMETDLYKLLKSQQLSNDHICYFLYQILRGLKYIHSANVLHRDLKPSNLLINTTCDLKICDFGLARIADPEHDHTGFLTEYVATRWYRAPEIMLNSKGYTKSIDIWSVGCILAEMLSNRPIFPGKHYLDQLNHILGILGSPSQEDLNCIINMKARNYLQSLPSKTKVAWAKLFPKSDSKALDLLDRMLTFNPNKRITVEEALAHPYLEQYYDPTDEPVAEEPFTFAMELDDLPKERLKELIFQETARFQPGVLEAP
ERK2, sequence (P28482 whole entry): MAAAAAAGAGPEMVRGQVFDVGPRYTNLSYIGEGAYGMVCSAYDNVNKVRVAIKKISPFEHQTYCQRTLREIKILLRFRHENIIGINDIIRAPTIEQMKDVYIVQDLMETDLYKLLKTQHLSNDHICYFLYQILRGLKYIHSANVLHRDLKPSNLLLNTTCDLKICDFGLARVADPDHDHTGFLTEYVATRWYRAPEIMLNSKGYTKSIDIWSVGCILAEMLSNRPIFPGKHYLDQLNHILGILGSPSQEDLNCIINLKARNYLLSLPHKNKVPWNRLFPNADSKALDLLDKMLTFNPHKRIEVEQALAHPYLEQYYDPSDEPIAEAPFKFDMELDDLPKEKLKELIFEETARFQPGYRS

IC50 [1, 4]	IC50 [2]	IC50 [3]	SMILES	IC50 ([1]; 120 h incubation)
11 nM	1.8 nM		COC[C@H]1Cn2cc(-c3cc(Nc4cc(C)nn4C)ncc3Cl)cc2C(=O)N1Cc1cc(F)ccc1CO [Example 96, (R)-7-(5-chloro-2-((1,3-dimethyl-1h-pyrazole-5-yl)amino)pyridine-4-yl)-2-(5-fluoro-2-(hydroxymethyl)benzyl)-3-(methoxymethyl)-3,4-dihydropyrrolo[1,2-a] pyrazine-1(2H)-one]	
28.9 nM	0.66 nM		Cn1nccc1Nc1ncc(C(F)(F)F)c(-c2cc3n(c2)CCN(Cc2cc(F)ccc2CO)C3=O)n1 [Example 164, 2-(5-fluoro-2-(hydroxymethyl)benzyl)-7-(2-((1-methyl-1h-pyrazole-5-yl)amino)-5-(trifluoromethyl)pyrimidin-4-yl)-3,4-dihydropyrrolo[1,2-a] pyrazine-1(2H)-one]	
73.3 nM	0.76 nM	0.73 nM	CC(C)Nc1cc(-c2cc3n(c2)CCCN(Cc2cc(F)c(F)cc2CO)C3=O)c(Cl)cn1 [Example 21, 8-(5-chloro-2-(isopropylamino)pyridin-4-yl)-2-(4,5-difluoro-2-(hydroxymethyl)benzyl)-2,3,4,5-tetrahydro-1h-pyrrolo[1,2-a][1,4] diazepine-1-one]	
9.6 nM	0.59 nM	0.96 nM	CC(C)Nc1cc(-c2cc3n(c2)CC(CO)(CO)CN(Cc2ccccc2CO)C3=O)c(Cl)cn1 [Example 27]	
36.1 nM	1.4 nM	1.3 nM	CC(C)Nc1cc(-c2cc3n(n2)CC(CO)(CCl)CN(Cc2ccccc2CO)C3=O)c(Cl)cn1 (stereo not drawn) [Example 8, 2-(5-Chloro-2-(isopropylamino)pyridin-4-yl)-7-(chloromethyl)-7-(hydroxymethyl)-5-(2-(hydroxymethyl)benzyl)-5,6,7,8-tetrahydro-4H-pyrazolo[1,5-a][1,4]diazepine-4-one]	
9 nM	0.5 nM	0.8 nM	CC(C)Nc1cc(-c2cc3n(c2)CC2(COC2)CN(Cc2ccccc2CO)C3=O)c(Cl)cn1 [Example 6, 8′-(5-Chloro-2-(isopropylamino)pyridin-4-yl)-2′-(2-(hydroxymethyl)benzyl)-2′,3-dihydro-1′H,5′H-spiro[oxetane-3,4′-pyrrolo[1,2-a][1,4]diazepine]-1′-one]	
50.8 nM	0.89 nM	0.74 nM	CC(C)Nc1cc(-c2cc3n(c2)CC2(COC2)CN(Cc2ccc(F)cc2CO)C3=O)c(Cl)cn1 [Example 13]	
18.7 nM	0.48 nM	0.42 nM	Cc1cnc(Nc2ccnn2C)nc1-c1cc2n(c1)CCN(Cc1cc(F)ccc1CO)C2=O [Example 23, 2-(5-Fluoro-2-(hydroxymethyl)benzyl)-7-(5-methyl-2-((1-methyl-1H-pyrazol-5-yl)amino)pyrimidin-4-yl)-3,4-dihydropyrrolo[1,2-a]pyrazine-1(2H)-one]	
35.3 nM	0.34 nM	0.43 nM	Cc1cnc(Nc2ccnn2C)nc1-c1c[nH]c(C(=O)NCc2cc(F)ccc2CO)c1 [Example 22, N-(5-fluoro-2-(hydroxymethyl)benzyl)-4-(5-methyl-2-((1-methyl-1H-pyrazol-5-yl)amino)pyrimidin-4-yl)-1H-pyrrole-2-carboxamide]	
77.5 nM	0.9 nM	1 nM	CC(C)Nc1cc(-c2cnc(C(=O)NCc3cc(F)ccc3CO)s2)c(Cl)cn1 [Example 2, 5-(5-Chloro-2-(isopropylamino)pyridin-4-yl)-N-(5-fluoro-2-(hydroxymethyl)benzyl)thiazole-2-formamide]	
56 nM	0.6 nM	0.9 nM	CC(C)Nc1cc(-c2cc3n(c2)CCCN(Cc2ccccc2CO)C3=O)c(Cl)cn1 [Example 16, 8-(5-chloro-2-(isopropylamino)pyridin-4-yl)-2-(2-(hydroxylmethyl)benzyl)-2,3,4,5-tetrahydro-1h-pyrrolo [1,2-a][1,4]diazepine-1-one]	
29.4 nM	0.8 nM	0.91 nM	COC[C@H]1Cn2cc(-c3cc(Nc4ccn(C)n4)ncc3Cl)cc2C(=O)N1Cc1cc(F)ccc1CO [Example 86, (R)-7-(5-chloro-2-((1-methyl-1h-pyrazole-3-yl)amino)pyridine-4-yl)-2-(5-fluoro-2-(hydroxymethyl)benzyl)-3-(methoxymethyl)-3,4-dihydropyrrolo[1,2-a] pyrazine-1(2H)-one]	
> 10000 nM	26 nM	44 nM	CC(C)Nc1cc(-c2c[nH]c(C(=O)NCc3cccc(F)c3)c2)c(Cl)cn1 [Example D6, 4-(5-chloro-2-(isopropylamino)pyridine-4-yl)-N-(3-fluorobenzyl)-1h-pyrrole-2-formamide, reference compound]	
12 nM	1.1 nM		COC[C@H]1Cn2cc(-c3cc(Nc4cn(C)nc4C)ncc3Cl)cc2C(=O)N1Cc1cc(F)ccc1CO [Example 89, (R)-7-(5-chloro-2-((1,3-dimethyl-1h-pyrazole-4-yl)amino)pyridine-4-yl)-2-(5-fluoro-2-(hydroxymethyl)benzyl)-3-(methoxymethyl)-3,4-dihydropyrrolo[1,2-a] pyrazin-1(2H)-one]	
76.7 nM	0.56 nM	0.34 nM	CC(C)Nc1cc(-c2cc3n(c2)CC(O)CN(Cc2cc(F)ccc2CO)C3=O)c(Cl)cn1 (stereo not drawn) [Example 20, 8-(5-chloro-2-(isopropylamino)pyridin-4-yl)-2-(5-fluoro-2-(hydroxymethyl)benzyl)-4-hydroxy-2,3,4,5-tetrahydro-1h-pyrrolo [1,2-a][1,4]diazepine-1-one]	
3.9 nM			COCOC[C@H]1Cn2cc(-c3cc(Nc4ccnn4C)ncc3Cl)cc2C(=O)N1Cc1cc(F)ccc1CO [Example 53, (R)-7-(5-chloro-2-((1-methyl-1H-pyrazol-5-yl)amino)pyridin-4-yl)-2-(5-fluoro-2-(hydroxymethyl)benzyl)-3-((methoxymethoxy)methyl)-3,4-dihydropyrrolo[1,2-a]pyrazine-1(2H)-ketone]	
> 10000 nM	> 300 nM	> 300 nM	CC(C)Nc1cc(-c2cc3n(c2)CC(CO)CN(Cc2cccc(Cl)c2)C3=O)c(Cl)cn1 (stereo not drawn) [Example D7, 8-(5-chloro-2-(isopropylamino)pyridin-4-yl)-2-(3-chlorophenylmethyl)-4-(hydroxymethyl)-2,3,4,5-tetrahydro-1h-pyrrolo [1,2-a][1,4]diazepine-1-one, reference compound]	
50 nM	0.53 nM	0.65 nM	CC(C)Nc1cc(-c2cc3n(c2)CC2(CNC2)CN(Cc2ccccc2CO)C3=O)c(Cl)cn1 [Example 24, 8′-(5-Chloro-2-(isopropylamino)pyridin-4-yl)-2′-(2-(hydroxymethyl)benzyl)-2′,3′-dihydro-1′H,5′H-spiro[azetidine-3,4′-pyrrolo[1,2-a][1,4]diazepine]-1′-one]	
			CC(C)Nc1cc(-c2cc3n(c2)CCN(C(CO)c2cccc(C(F)(F)F)c2)C3=O)c(Cl)cn1 (stereo not drawn) [Example D1, reference compound]	7330 nM
56.6 nM	0.49 nM	0.4 nM	CC(C)Nc1cc(-c2cc3n(c2)CCN(Cc2cc(F)ccc2CO)C3=O)c(Cl)cn1 [Example 18, 7-(5-chloro-2-(isopropylamino)pyridin-4-yl)-2-(5-fluoro-2-(hydroxymethyl)benzyl)-3,4-dihydropyrrolo[1,2-a]pyrazine-1(2H)-one]	
16.7 nM	0.87 nM	0.89 nM	CC(C)Nc1cc(-c2cc3n(c2)CC2(COC2)CN(Cc2cc(F)ccc2CO)C3=O)c(Cl)cn1 [Example 10, 8′-(5-chloro-2-(isopropylamino)pyridin-4-yl)-2′-(5-fluoro-2-(hydroxymethyl)benzyl)-2′,3′-dihydro-1′h,5′h-spiro[oxacyclobutane-3,4′-pyrrolo[1,2-a][1,4]diazepine]-1′-one]	
			CC(C)Nc1cc(-c2cnn(C(=O)N[C@H](CO)c3cccc(Cl)c3)c2)c(Cl)cn1 [Example D2, (S)-4-(5-chloro-2-(isopropylamino)pyridin-4-yl)-N′-(1-(3-chlorophenyl)-2-hydroxyethyl)-1H-pyrazole-1-carboxamide, reference compound]	12200 nM
28.8 nM	1 nM		COC[C@H]1Cn2cc(-c3cc(Nc4cnn(C)c4)ncc3Cl)cc2C(=O)N1Cc1cc(F)ccc1CO [Example 88, (R)-7-(5-chloro-2-((1-methyl-1h-pyrazole-4-yl)amino)pyridine-4-yl)-2-(5-fluoro-2-(hydroxymethyl)benzyl)-3-(methoxymethyl)-3,4-dihydropyrrolo[1,2-a] pyrazine-1(2H)-one]	
16.7 nM	1.2 nM	1.6 nM	COC[C@H]1Cn2cc(-c3cc(Nc4ccnn4CC(F)F)ncc3Cl)cc2C(=O)N1Cc1cc(F)ccc1CO [Example 115, (R)-7-(5-chloro-2-((1-(2,2-difluoroethyl)-1h-pyrazole-5-yl)amino)pyridine-4-yl)-2-(5-fluoro-2-(hydroxymethyl)benzyl)-3-(methoxymethyl)-3,4-dihydropyrrolo[1,2-a] pyrazine-1(2H)-one]	
1630 nM			CC(C)Nc1cc(-c2cc3n(c2)CCN(Cc2cccc(F)c2)C3=O)c(Cl)cn1 [Example D8, 7-(5-chloro-2-(isopropylamino)pyridin-4-yl)-2-(3-fluorobenzyl)-3,4-dihydropyrrolo[1,2-a] pyrazine-1(2H)-one, reference compound]	
